Assay results as given in patent US7714006B1, “Methods of modifying the bioavailability of metaxalone” (King Pharmaceuticals Research & Development, Inc., priority 2001, dated 2010).
Like-named read-outs stand apart in the source and are kept apart here.

Columns and labels:
[1] = Effects of age and gender on PK parameters, 1×800 mg data from study 103 and 2×400 mg data from study 105, fed and fasted; assay type: in vivo, human; conditions: 1×800 mg (103) + 2×400 mg (105)
Protocol: The report is based primarily on two similarly designed studies in which PK parameters were determined under fed and fasted conditions for the 2×400 mg dose of metaxalone: • Study AN151607-103 (hereafter referred to as the 103 study): a four-period, randomized crossover trial with treatment conditions 2×400 mg with food, 2×400 mg without food, 1×800 mg with food, 1×800 mg without food; and • Study ELN151607-105 (hereafter referred to as the 105 study): a two-period, randomized crossover trial with treatment conditions 2×400 mg with food and 2×400 mg without food.
(§1) These analyses are still based on the combined group of n=103 subjects (59 from study 103, 44 from study 105). However, the fed and fasted PK values from the 1×800 dosage of study 103 are used instead of the data from the 2×400 dosage.
as §1, with “It is possible to somewhat independently assess the consistency of the results from Sections 3.2 and 3.3 by repeating the analyses using the 1×800 fed and fasted results from study 103. These” for “These”
The same regression modeling strategy as was described in Sections 3.2 and 3.3 was also used. […] The parameter estimates, standard errors, and p-values for the gender and age effects are shown below for the fed and fasted conditions in TABLE XIb: […]

[2] = Food effect study: single oral Skelaxin 400 mg tablet with vs without food, healthy subjects, plasma pharmacokinetics; assay type: in vivo, human; conditions: for AUC(0-inf) / AUC(0-t) / Cmax / half-life / Tmax: both sexes, human, plasma, oral, 400 mg; for half-life: read-out: T1/2, least squares mean (converted); for Tmax: read-out: Tmax, least squares mean
Protocol: The effect of food on metaxalone absorption was identified in a study designed to compare the bioavailability of 400 mg of metaxalone in the formulation the drug product Skelaxin® administered to healthy volunteers with and without food.
An objective was to evaluate the bioavailability of metaxalone when administered to subjects with and without food. A single center, single dose, open-label, two-period, randomized, crossover trial in healthy subjects was conducted over a period of approximately 32 days.
Treatment A: metaxalone tablet (400 mg) administered with food
Treatment B: metaxalone tablet (400 mg) administered without food
In fed treatment condition A, study drug was taken 15 minutes after the test meal. The test meal was consumed over a 15 minute time period. There was a 6-day washout period between study drug administrations. Seventeen blood samples were collected, starting with baseline (0 hour) and at the following time points: 0.5, 1, 1.5, 2, 2.5, 3, 3.5, 4, 4.5, 5, 6, 8, 12, 16; 24, and 36 hours.
A total of 44 subjects (31 males/13 females) were enrolled and dosed. Only the plasma of subjects who completed the study were assayed and used for the pharmacokinetic analysis.
A single center, single dose, open label, two-period crossover trial was devised for study in healthy subjects. Each administration was a single oral dose of one Skelaxin® 400 mg tablet with or without food. The study drug was administered as follows:
Treatment A: One (1) 400 mg tablet of metaxalone with 240 mL of room temperature water with food: Breakfast was given to the subjects 30 Minutes prior to dosing and eaten within a 15 minute period. The dose of study drug was administered to the subjects 15 minutes after the breakfast was finished.
Treatment B: One (1) 400 mg tablet of metaxalone with 240 mL of room temperature water without food. The study drug was administered with 240 mL room temperature water. A mouth check was performed to verify that the subjects swallowed the dose. Subjects were sequentially dosed at 1-minute intervals. The actual time of dosing was recorded on the Master Flow Sheet (refer to the Appendix 16.3.2 Clinical Study Data). Drug administration (1×400 mg tablet) was assisted with 240 mL of room temperature water consumed under direct observation. Immediately after administration of product, the subject's oral cavity was checked to confirm complete medication and fluid consumption. Dosing was completed as scheduled in 42 of 44 subjects.
The drug substance, metaxalone, was dosed in tablet form. Content 400 mg; Route: Oral, Batch/Lot No.: SKLWW263F; Expiration Date: FEB03; Manufacturer: West-Ward Pharmaceutical Corp.
All pharmacokinetic parameters were analyzed by noncompartmental methods. The following PK parameters were calculated for the two PK profiles and are defined as follows: […]
Tmax: Time to maximum concentration;
Cmax: Observed maximum concentration;
kel: Slope of terminal linear portion of concentration/time curve;
T1/2: Half-life of metaxalone calculated as: 0.693/Kel;
AUC(last): Area under the curve to last quantifiable concentration as measured by the trapezoidal rule;
AUC(inf): The AUC value extrapolated to infinity calculated as:
AUC(inf)=AUC(last)+C(t)last/Kel where C(t)last is the last measurable concentration.
All statistical analyses were performed using SAS® software version 6.08 or higher. The pharmacokinetic parameters between the two treatments were compared using an appropriate ANOVA model (analysis of variance) that includes terms for treatment, sequence, and period effect. Ninety percent confidence intervals were computed for the Cmax and AUC values of the fed treatment with fasting as the reference treatment. During the study there were no protocol deviations to confound the pharmacokinetic and bioavailability analyses. Study results were not corrected for drug potency.
Differences were declared to be significant at the 5% level. […]

[3] = Treatment A: 400 mg tablet with food
[4] = Treatment B: 400 mg tablet without food
[5] = fed vs fasted, ln-transformed data

Cc1cc(C)cc(OCC2CNC(=O)O2)c1 (stereo not shown) [metaxalone, 5-[(3,5-dimethylphenoxy)methyl]-2 oxazolidinone]
Variability of the fasted PK parameters explained by age ([1]; fasted): more than 25%
Pearson correlation, age vs ln(AUC(inf)) ([1]; fasted, n=103): 0.513
Pearson correlation, age vs ln(AUC(last)) ([1]; fasted, n=103): 0.522
Pearson correlation, age vs ln(Cmax) ([1]; fasted, n=103): 0.600
Spearman correlation, age vs ln(AUC(inf)) ([1]; fasted, n=103): 0.514
Spearman correlation, age vs ln(AUC(last)) ([1]; fasted, n=103): 0.522
Spearman correlation, age vs ln(Cmax) ([1]; fasted, n=103): 0.635
Pearson correlation, age vs ln(AUC(inf)) ([1]; fasted, females n=42): 0.582
Pearson correlation, age vs ln(AUC(last)) ([1]; fasted, females n=42): 0.596
Pearson correlation, age vs ln(Cmax) ([1]; fasted, females n=42): 0.607
Spearman correlation, age vs ln(AUC(inf)) ([1]; fasted, females n=42): 0.596
Spearman correlation, age vs ln(AUC(last)) ([1]; fasted, females n=42): 0.601
Spearman correlation, age vs ln(Cmax) ([1]; fasted, females n=42): 0.638
Pearson correlation, age vs ln(AUC(inf)) ([1]; fasted, males n=61): 0.441
Pearson correlation, age vs ln(AUC(last)) ([1]; fasted, males n=61): 0.447
Pearson correlation, age vs ln(Cmax) ([1]; fasted, males n=61): 0.567
Spearman correlation, age vs ln(AUC(inf)) ([1]; fasted, males n=61): 0.499
Spearman correlation, age vs ln(AUC(last)) ([1]; fasted, males n=61): 0.501
Spearman correlation, age vs ln(Cmax) ([1]; fasted, males n=61): 0.599
Variability of the fed PK parameters explained by age ([1]; fed): ≤ 5%
Pearson correlation, age vs ln(AUC(inf)) ([1]; fed, n=103): 0.237
Pearson correlation, age vs ln(AUC(last)) ([1]; fed, n=103): 0.229
Pearson correlation, age vs ln(Cmax) ([1]; fed, n=103): 0.040
Spearman correlation, age vs ln(AUC(inf)) ([1]; fed, n=103): 0.281
Spearman correlation, age vs ln(AUC(last)) ([1]; fed, n=103): 0.276
Spearman correlation, age vs ln(Cmax) ([1]; fed, n=103): 0.086
Pearson correlation, age vs ln(AUC(inf)) ([1]; fed, females n=42): 0.436
Pearson correlation, age vs ln(AUC(last)) ([1]; fed, females n=42): 0.408
Pearson correlation, age vs ln(Cmax) ([1]; fed, females n=42): 0.258
Spearman correlation, age vs ln(AUC(inf)) ([1]; fed, females n=42): 0.432
Spearman correlation, age vs ln(AUC(last)) ([1]; fed, females n=42): 0.410
Spearman correlation, age vs ln(Cmax) ([1]; fed, females n=42): 0.202
Pearson correlation, age vs ln(AUC(inf)) ([1]; fed, males n=61): 0.023
Pearson correlation, age vs ln(AUC(last)) ([1]; fed, males n=61): 0.022
Pearson correlation, age vs ln(Cmax) ([1]; fed, males n=61): −0.170
Spearman correlation, age vs ln(AUC(inf)) ([1]; fed, males n=61): 0.187
Spearman correlation, age vs ln(AUC(last)) ([1]; fed, males n=61): 0.188
Spearman correlation, age vs ln(Cmax) ([1]; fed, males n=61): −0.001
Bioavailability when administered with food ([2]; 400 mg tablets, single dose, with food vs without): increased
AUC(0-inf) ([2]; Treatment A: 400 mg tablet with food, read-out: AUC(inf), least squares mean): 8540 ng·h/mL
AUC(0-t) ([2]; Treatment A: 400 mg tablet with food, read-out: AUC(last), least squares mean): 8440 ng·h/mL
Cmax ([2]; Treatment A: 400 mg tablet with food, read-out: Cmax, least squares mean): 1770 ng/mL
AUC(0-inf) ([2]; Treatment A: 400 mg tablet with food, read-out: Ln-Transformed AUC(inf), geometric mean): 7630 ng·h/mL
AUC(0-t) ([2]; Treatment A: 400 mg tablet with food, read-out: Ln-Transformed AUC(last), geometric mean): 7520 ng·h/mL
Cmax ([2]; Treatment A: 400 mg tablet with food, read-out: Ln-Transformed Cmax, geometric mean): 1540 ng/mL
half-life [2, 3]: 2.37 h
Tmax [2, 3]: 4.29 h
AUC(0-inf) ([2]; Treatment B: 400 mg tablet without food, read-out: AUC(inf), least squares mean): 7480 ng·h/mL
AUC(0-t) ([2]; Treatment B: 400 mg tablet without food, read-out: AUC(last), least squares mean): 6960 ng·h/mL
Cmax ([2]; Treatment B: 400 mg tablet without food, read-out: Cmax, least squares mean): 983 ng/mL
AUC(0-inf) ([2]; Treatment B: 400 mg tablet without food, read-out: Ln-Transformed AUC(inf), geometric mean): 6620 ng·h/mL
AUC(0-t) ([2]; Treatment B: 400 mg tablet without food, read-out: Ln-Transformed AUC(last), geometric mean): 6090 ng·h/mL
Cmax ([2]; Treatment B: 400 mg tablet without food, read-out: Ln-Transformed Cmax, geometric mean): 865 ng/mL
half-life [2, 4]: 9.04 h
Tmax [2, 4]: 3.32 h
% Ratio (A/B) AUC(inf) [2, 5]: 115.35%
% Ratio (A/B) AUC(last) [2, 5]: 123.48%
% Ratio (A/B) Cmax [2, 5]: 177.53%
